# Laboratory results as given in paper PMC3795776, “Alpha-Helical Destabilization of the Bcl-2-BH4-Domain Peptide Abolishes Its Ability to Inhibit the IP3 Receptor” (PLoS ONE, 2013).
# How the values were obtained:
# [1] = tested on: IP3R-mediated Ca2+ release in permeabilized MEF cells; assay: Unidirectional 45Ca2+-flux assay, IP3-induced Ca2+ release (IICR); type: cell-based, mouse; details: result in words; for effect on IP3R-mediated Ca2+ release at 50 µM peptide: 3 µM IP3, 50 µM peptide
# Method: ^45Ca^2+-unidirectional flux experiments were performed as previously described. Twelve-well clusters containing MEF cells were fixed on a thermostated plate at 30 °C on a mechanical shaker. The culture medium was aspirated, and the cells were permeabilized by incubating them for 10 min in a solution containing 120 mM KCl, 30 mM imidazole-HCl (pH 6.8), 2 mM MgCl2, 1 mM ATP, 1 mM EGTA and 20 µg/ml saponin. The non-mitochondrial Ca^2+ stores were then loaded for 45 min in 120 mM KCl, 30 mM imidazole-HCl (pH 6.8), 5 mM MgCl2, 5 mM ATP, 0.44 mM EGTA, 10 mM NaN3 to prevent mitochondrial Ca^2+ uptake, and 150 nM free ^45Ca^2+ (28 µCi/ml). Then, 1 ml of efflux medium containing 120 mM KCl, 30 mM imidazole-HCl (pH 6.8) and 1 mM EGTA was added and replaced every 2 min. IP3 (3 µM) was added for 2 min after 10 min of efflux. At the end of the experiment, all ^45Ca^2+ remaining in the stores was released by incubation with 1 ml of a 2% (w/v) sodium dodecyl sulfate solution for 30 min. Ca^2+ release was plotted as fractional loss (% / 2 min) as a function of time as previously described. The effect of the BH4-domain peptides on IICR was tested by pre-incubating the peptides for 4 min before exposing the stores to IP3.
# [2] = CD spectroscopy, α-helical content (CONTIN/LL deconvolution); type: physicochemical; details: 50 µM peptide in 97.5% TFE / 2.5% methanol, 25 °C, 190-260 nm, ten scans, CDPro CONTIN/LL
# Method: CD spectra (Jasco J-810 circular dichroism spectropolarimeter, USA) were recorded at 1 nm intervals over the 190-260 nm wavelength range using 1 mm path length quartz cells (Hellma, Germany). Ten scans were performed. The experiments were run at 20 nm/min and the temperature was fixed at 298^° K (25 °C). The secondary structure of the peptide (50 µM) was determined in 97.5% 2,2,2-trifluoroethanol (TFE) and 2.5% methanol. The ellipticity is calculated per mole of amino-acid residue. To estimate the secondary structure of the peptide in terms of α-helical content, an analysis of the relevant CD spectra was carried out using the CDPro software (http://lamar.colostate.edu/~sreeram/CDPro/main.html) developed by Woody and coworkers. The basis set 10 of the CDPro software was used. The analysis was performed using the CONTIN/LL [31], a self-consistent method with an incorporated variable selection.
# [3] = biological target: GST-Dom3 IP3R1 (GST fused to IP3R1 Domain 3, aa 923-1581) (mouse, UniProt P11881 923-1581); assay: cell-based or functional assay
# GST-Dom3 IP3R1 (GST fused to IP3R1 Domain 3, aa 923-1581), sequence (P11881 923-1581): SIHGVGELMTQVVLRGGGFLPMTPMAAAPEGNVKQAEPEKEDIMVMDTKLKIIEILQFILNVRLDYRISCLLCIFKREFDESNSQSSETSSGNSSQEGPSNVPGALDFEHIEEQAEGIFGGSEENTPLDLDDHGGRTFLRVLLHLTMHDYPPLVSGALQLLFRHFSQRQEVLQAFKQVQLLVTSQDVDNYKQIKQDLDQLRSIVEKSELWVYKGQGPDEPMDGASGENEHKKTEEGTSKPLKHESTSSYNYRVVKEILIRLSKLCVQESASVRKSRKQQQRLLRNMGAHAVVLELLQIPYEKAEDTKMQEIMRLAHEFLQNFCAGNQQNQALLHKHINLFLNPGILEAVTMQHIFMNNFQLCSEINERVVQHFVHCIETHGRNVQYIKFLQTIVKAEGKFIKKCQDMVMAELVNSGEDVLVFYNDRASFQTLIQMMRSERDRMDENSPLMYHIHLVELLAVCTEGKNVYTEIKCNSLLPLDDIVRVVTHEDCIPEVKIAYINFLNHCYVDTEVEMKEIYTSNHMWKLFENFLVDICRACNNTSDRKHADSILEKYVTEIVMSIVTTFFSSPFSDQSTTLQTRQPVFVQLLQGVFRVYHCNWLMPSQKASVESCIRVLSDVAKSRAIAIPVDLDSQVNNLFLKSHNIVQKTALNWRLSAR
Molecule,effect on IP3R-mediated Ca2+ release at 50 µM peptide [1],α-helical content [2] [%],"effect on IICR, concentration-response ([1]; 3 µM IP3, peptide 0.1-100 µM, 3 independent experiments)","IC50 of inhibition of IP3-induced Ca2+ release (IICR), unidirectional 45Ca2+ flux in permeabilized MEF cells, 3 µM IP3, peptide 0.1-100 µM [3] [µM]"
"RTGYDNREIGMKYGHYKGSQRGYEW [Bcl-2-BH4 VIL/GGG, Bcl-2-BH4 peptide with glycines at positions V15/I19/L23]",lost their ability to inhibit IP3R-mediated Ca^2+ release,17.7,,
"WYEKQRSLHGIMYYVIEDRNTKGYR [Bcl-2-BH4 SCR, scrambled version of the Bcl-2-BH4 peptide, reference compound]",,,neither Bcl-2-BH4 IV/GG (Figure 3A-B) nor the scrambled version of the Bcl-2-BH4 peptide (Bcl-2-BH4 SCR) (Figure 3B) significantly affect IICR,
"RTGYDNREGVMKYGHYKLSQRGYEW [Bcl-2-BH4 II/GG, Bcl-2-BH4 peptide with glycines at positions I14/I19]",lost their ability to inhibit IP3R-mediated Ca^2+ release,32,,
RTGYDNREIVMKYIHYKLSQRGYEW [Bcl-2-BH4 peptide],,,,~30
